Experiment [1] concerns 3D10 MAb (raised against PvDBP region II). Put plainly: Indirect ELISA, titration of 3D10 against coated peptides. The experiment is classed as binding, mouse. To be noted: for 3D10 recognition of peptide by ELISA: peptide coated at 5 µg/ml, titration of 3D10, OD relative to isotype control IgG1. Here is the method: (§1) Immunoglobulin G (IgG) reactivity was measured using the enzyme-linked immunosorbent assay (ELISA). Briefly, 96-well Maxisorb plates (catalogue no. 439454; Thermo Fisher Scientific) were coated with synthetic peptides and recombinant full-length VAR2CSA diluted in 1 x PBS and incubated overnight at 4°C. Coated plates were blocked with 4% bovine serum albumin (BSA, catalogue no. A7906; Sigma-Aldrich) for 1 h at 37°C, then washed once with 1 x PBST (0.1% Tween 20). Plates were incubated with primary antibody for 1 h at room temperature (RT) and washed four times with 1 x PBST. The washed plates were incubated at RT for 1 h with 100 µl of HRP-conjugated secondary antibody (goat anti-human HRP, catalogue no. ab98624, Abcam; goat anti-mouse HRP, catalogue no. 170-6516, Bio-Rad, Mississauga, Canada; goat anti-rat HRP catalogue no. 62-9520). After four washes, 100 µl of 3,3′,5,5′-Tetramethylbenzidine (TMB, catalogue no. T0440; Sigma-Aldrich) were added and the reaction was stopped after 30 mins with an equal volume of H2SO4 (0.5 N). Human sera were screened once, in duplicate. The optical density (OD) values were converted to arbitrary units relative to the positive control sera included on each plate using the formula: AU = ODtest -ODbackground/ODpositive control pool – ODbackground)*100. The positive control pool refers to the OD of a pool of Colombian or Ugandan samples that were seroreactive against the peptides or VAR2CSA, respectively. The background is the OD with secondary antibody alone. The cut-off for seropositivity was based on the mean AU of sera from 12 individual Colombians not exposed to malaria plus 2 standard deviations; data to generate the cut-off are from two independent experiments. Only sera that were above the cut-off for VAR2CSA seropositivity were screened against CRP1 and SD1CLIPS.
In general terms: In an ELISA, binding on a coated surface is turned into a signal by an enzyme label.

For experiment [2], the system named is P. falciparum CS2 infected erythrocytes (VAR2CSA-expressing) binding to CSA. Put plainly: Inhibition of binding assay (IBA), static binding of IEs to CSA. The experiment is classed as cell-based. To be noted: CS2 IEs preincubated with soluble CSA 250 µg/ml, positive control; relative to AE-BSA control. Here is the method: CRP1 was conjugated to BSA (as carrier protein) at the N-terminus through an azide-alkyne cycloaddition and outsourced commercially to ProSci (California, USA) for rat immunizations. As controls, an unrelated peptide conjugate (P5-BSA), the PAMVAC vaccine candidate (ID1-ID2a region from VAR2CSA) and the carrier protein conjugated to the linker (azido-ethanol (AE-BSA)) were included. Briefly, two female Sprague Dawley rats (~11 weeks old) were immunized intraperitoneally on day 0 with 75 µg of each antigen formulated in PBS and Complete Freund’s Adjuvant (CFA) followed by 3 booster immunizations with 50 µg of antigen in Incomplete Freund’s Adjuvant at 2-week intervals. Sera were collected 14 days after the final boost.
P. falciparum CS2 parasites were cultured in vitro as described ([Trager and Jensen, 1976]). Parasites were selected for adhering to CSA every 3-4 weeks to enrich for parasites expressing VAR2CSA. […]
The ability of anti-CRP1 IgG to block parasite binding to CSA in vitro was assessed by a static binding assay ([Gnidehou et al., 2014]). […] After washing, spots were fixed with glutaraldehyde and stained with Giemsa before imaging using a EVOS FL Auto microscope (Invitrogen) and the number of parasites bound per spot was analyzed using ImageJ. Percent inhibition of binding was calculated relative to the counts from the AE-BSA control.

Experiment [3] can be described thus: Isothermal titration calorimetry (ITC) of peptides with CSA. The experiment is classed as binding, Bovine. To be noted: 25°C; for Binding to CSA by ITC: PBS with 0.5% acetonitrile pH 7.4, 50 µM peptide in cell, 1 mM CSA in syringe, 25 injections of 1.5 µl. Here is the method:
Bovine tracheal CSA was purchased from Sigma-Aldrich (Cat no C9819). The energetics of the binding of peptides to CSA was performed at 25°C, on a MicroCal PEAQ-ITC calorimeter (Malvern Panalytical, Malvern, USA). For all experiments, samples were prepared in PBS containing 0.5% acetonitrile, pH 7.4. The reference cell was loaded with autoclaved milli-Q ultra-pure water; the sample cell was loaded with peptide solution (50 µM) and the syringe was filled with 1 mM CSA solution (based on a molecular weight of 50 kDa). In each titration, 25 injections of 1.5 μl of the CSA solution were made into the sample cell. A spacing of 150 s between each injection was applied to enable the system to reach equilibrium. The ITC data were analyzed with MicroCal-PEAQ-ITC Analysis Software v1.41. Binding parameters such as the ΔH (enthalpy change) and the ΔS (entropy change) were determined by fitting the experimental binding isotherms with the ‘one set of sites’ fitting model and GraphPad Prism software (version 9) was used to plot the results.
Background: ITC needs no label: the signal is the heat of the interaction.

The test system of experiment [4] is rat-CRP1 antibodies (sera of CRP1-BSA immunized rats). Put plainly: Indirect ELISA, reactivity of rat anti-CRP1 sera against peptides. The format is binding. To be noted: peptide coated 5 µg/ml, rat sera 1/100 dilution. Here is the method: as §1, with “The positive control pool refers to the OD of a pool of Colombian or Ugandan samples that were seroreactive against the peptides or VAR2CSA, respectively. The background is the OD with secondary antibody alone. The cut-off for seropositivity was based on the mean AU of sera from 12 individual Colombians not exposed to malaria plus 2 standard deviations; data to generate the cut-off are from two independent experiments. Only sera that were above the cut-off for VAR2CSA seropositivity were screened against CRP1 and SD1CLIPS.” left out

Experiment [5] relates to 3D10 MAb binding to SD1CLIPS. Put plainly: Competition ELISA of 3D10 with SD1CLIPS as capture antigen. Set-up: species or system mouse. To be noted: 3D10 (1.72 µg/ml) pre-incubated 1 h RT with 10 µg/ml competing peptide; SD1CLIPS coated 1 µg/ml; compared with negative control peptide P10; 3 independent experiments.
For experiment [6], the system named is 3D10 MAb binding to recombinant VAR2CSA (FCR3). The experiment can be described thus: Competition ELISA of 3D10 with VAR2CSA as capture antigen. Further details: species or system mouse. To be noted: 3D10 (8.6 µg/ml) pre-incubated 1 h RT with 10 µg/ml competing peptide; VAR2CSA coated 1 µg/ml; 3 independent experiments. Here is the method:
as §1, with “The positive control pool refers to the OD of a pool of Colombian or Ugandan samples that were seroreactive against the peptides or VAR2CSA, respectively. The background is the OD with secondary antibody alone. The cut-off for seropositivity was based on the mean AU of sera from 12 individual Colombians not exposed to malaria plus 2 standard deviations; data to generate the cut-off are from two independent experiments. Only sera that were above the cut-off for VAR2CSA seropositivity were screened against CRP1 and SD1CLIPS.” left out

The values below come from article PMC10312377, “A conserved epitope in VAR2CSA is targeted by a cross-reactive antibody originating from Plasmodium vivax Duffy binding protein” (Frontiers in Cellular and Infection Microbiology, 2023).

On to “KKYISEKKQEWDAQKTAYENAYVGKSASDLLKEN [CRP1-AAA]”, for which the “3D10 recognition of peptide by ELISA” value in experiment [1] is “completely abolished antibody recognition”.
As for chondroitin sulfate A [Soluble CSA], the “Percent inhibition of IE binding to CSA” value in experiment [2] is “over 90%”.
In the case of “KQIWLKSKSKNKTEEKGKDYYQKEKYKANLEVSD [Scrambled CRP1 peptide, scrambled version of CRP1, reference compound]”, in experiment [1], the “3D10 recognition of peptide by ELISA” value is reported as “poorly recognized”. The “Binding to CSA by ITC” value in experiment [3] is listed as “also bound to CSA”. The “Recognition of peptide by rat-CRP1 antibodies (ELISA)” value in experiment [4] is recorded as “did not recognize”.
As for “KAYISEKKQEWDKQKTKYENKYVGKSASDLLKEN [CRP1-K1510A]”, in experiment [1], the “3D10 recognition of peptide by ELISA” value is on record as “partially reduced binding”.
“KKYISEKKQEWDKQKTKYENKYVGKSASDLLKEN [CRP1]”: the “3D10 recognition of peptide by ELISA compared with SD1CLIPS” value in experiment [1] (both peptides coated at 1 µg/ml, titration of 3D10) is “substantially weaker”. In experiment [1], the “3D10 recognition of peptide by ELISA” value is recorded as “recognizes”. In experiment [5], the “Competition for 3D10 binding to SD1CLIPS” value is recorded as “significant loss in SD1CLIPS recognition”. In experiment [6], the “Competition for 3D10 binding to VAR2CSA” value is recorded as “same binding inhibition toward VAR2CSA as compared to SD1CLIPS”. For the same substance, the “Binding to CSA by ITC in the presence of 100 mM NaCl” value in experiment [3] (50 µM peptide, 1 mM CSA, in the presence of 100 mM NaCl) is on record as “abrogated”. Also, the “Binding to CSA by ITC” value in experiment [3] is “heat release after each CSA injection, consistent with CSA binding to CRP1”. Further, the “Recognition of peptide by rat-CRP1 antibodies (ELISA)” value in experiment [4] is recorded as “recognized”.
